Several values for one entry are separate records, joined by “and”; a condition that tells them apart may be missing. Equal values may be shown once.
Assay: Pharmacokinetic evaluation, plasma and brain concentrations
Assay type: in vivo, ICR mice
Text: Distribution of a medicament in the body is one of the important indicators to determine the dose and efficacy of the medicament. Thus, excellent candidate compounds should have good pharmacokinetic characteristics. In addition, since the compound of the present invention is intended to be used for the treatment of Alzheimer's disease, which is a disease of the central nervous system, the distribution pattern of the compound in the brain and the blood is also one of the subjects to be investigated. In this experiment, compound 50561 was administered to mice […] or by gavage, and the concentrations of the compound in blood and brain were measured at specific time points to determine the pharmacokinetic parameters.
Forty-eight male ICR mice purchased from Shanghai Sippr-BK Lab. Animal Co. Ltd were used in this experiment. The oral group was fasted for 10-14 hours before administration, and feeding was restored 4 hours after administration. Samples were collected from the intravenous administration group 0.083 h, 0.25 h, 0.5 h, 1 h, 2 h, 4 h, 8 h, and 24 h after administration, respectively: while for the oral administration group, about 0.5 mL of blood was collected from the heart 0.25 h, 0.5 h, 1 h, 2 h, 4 h, 6 h, 8 h, and 24 h after administration, respectively. Heparin sodium was used for anticoagulation. Blood samples were collected and placed on ice, and plasma was separated by centrifugation (centrifugation conditions: 8000 rpm, 6 minutes, 4C). The collected plasma was stored at −80° C. before analysis. After collecting plasma samples, brain tissues were collected, washed with normal saline, water-absorbed by filter paper, weighed immediately, and then placed in labeled tubes (one tube for one brain tissue). The samples to be tested were temporarily placed on ice before being stored in a −80° C. refrigerator.
The analysis methods of biological samples and the analysis of all samples were done by Medicilon Pharmaceutical Technology (Shanghai) Co., Ltd. The intraday accuracy evaluation of the quality control samples was carried out while analyzing the samples, and the accuracy of over 66.7% of the quality control samples was required to be between 80-120%.
When calculating the pharmacokinetic parameters, the BLQ before Cmax (including “No peak”) was calculated as 0; BLQ occurring after Cmax (including “No peak”) was not involved in the calculation. WinNonlin Professional V 5.2 (Pharsight, USA) was adopted to calculate the following pharmacokinetic parameters: AUC(0-t), AUC(0-∞), T1/2, MRT(0-∞), Cmax, and Tmax. The tissue/plasma ratio was to be calculated by the following formula based on the blood concentration data at different time points: Tissue/plasma ratio (mL/g)=tissue blood concentration/plasma blood concentration.

O=C1C=C(OCc2ccc(F)cc2)[C@H](Cc2ccccc2)N1 [Compound 50561]
Brain/plasma ratio, Mean (IV 1 mg/kg, 0.083 hr): 2.499 mL/G | Blood concentration, individual mice (IV 1 mg/kg, 0.083 hr, 1 mg/kg): 327.86 ng/mL and 145.16 ng/mL and 434.45 ng/mL | Brain tissue concentration, individual mice (IV 1 mg/kg, 0.083 hr, 1 mg/kg): 853.63 ng/G and 383.96 ng/G | Brain/plasma ratio, individual mice (IV 1 mg/kg, 0.083 hr, 1 mg/kg): 2.604 mL/G and 2.645 mL/G and 2.249 mL/G | Brain/plasma ratio, Mean (IV 1 mg/kg, 0.25 hr): 2.342 mL/G | Blood concentration, individual mice (IV 1 mg/kg, 0.25 hr, 1 mg/kg): 180.29 ng/mL and 215.73 ng/mL | Brain tissue concentration, individual mice (IV 1 mg/kg, 0.25 hr, 1 mg/kg): 435.34 ng/G and 465.70 ng/G | Brain/plasma ratio, individual mice (IV 1 mg/kg, 0.25 hr, 1 mg/kg): 2.451 mL/G and 2.415 mL/G and 2.159 mL/G | Brain/plasma ratio, Mean (IV 1 mg/kg, 0.5 hr): 2.488 mL/G | Blood concentration, individual mice (IV 1 mg/kg, 0.5 hr, 1 mg/kg): 98.13 ng/mL and 89.73 ng/mL | Brain tissue concentration, individual mice (IV 1 mg/kg, 0.5 hr, 1 mg/kg): 251.60 ng/G and 211.84 ng/G | Brain/plasma ratio, individual mice (IV 1 mg/kg, 0.5 hr, 1 mg/kg): 2.540 mL/G and 2.564 mL/G and 2.361 mL/G | Brain/plasma ratio, Mean (IV 1 mg/kg, 1 hr): 3.007 mL/G | Blood concentration, individual mice (IV 1 mg/kg, 1 hr, 1 mg/kg): 18.27 ng/mL and 8.99 ng/mL and 18.70 ng/mL | Brain tissue concentration, individual mice (IV 1 mg/kg, 1 hr, 1 mg/kg): 35.43 ng/G and 51.45 ng/G | Brain/plasma ratio, individual mice (IV 1 mg/kg, 1 hr, 1 mg/kg): 2.330 mL/G and 3.941 mL/G and 2.751 mL/G | Blood concentration, individual mice (IV 1 mg/kg, 2 hr): BLQ | Brain tissue concentration, individual mice (IV 1 mg/kg, 2 hr): BLQ | Blood concentration, individual mice (IV 1 mg/kg, 4 hr): BLQ | Brain tissue concentration, individual mice (IV 1 mg/kg, 4 hr): BLQ | Blood concentration, individual mice (IV 1 mg/kg, 8 hr): BLQ | Brain tissue concentration, individual mice (IV 1 mg/kg, 8 hr): BLQ | Blood concentration, individual mice (IV 1 mg/kg, 24 hr): BLQ | Brain tissue concentration, individual mice (IV 1 mg/kg, 24 hr): BLQ | Brain/plasma ratio, Mean (PO 10 mg/kg, 0.25 hr): 1.877 mL/G | Blood concentration, individual mice (PO 10 mg/kg, 0.25 hr, 10 mg/kg): 655.31 ng/mL and 548.11 ng/mL | Brain tissue concentration, individual mice (PO 10 mg/kg, 0.25 hr, 10 mg/kg): 1042.09 ng/G and 1147.13 ng/G | Brain/plasma ratio, individual mice (PO 10 mg/kg, 0.25 hr, 10 mg/kg): 1.948 mL/G and 1.590 mL/G and 2.093 mL/G | Brain/plasma ratio, Mean (PO 10 mg/kg, 0.5 hr): 2.147 mL/G | Blood concentration, individual mice (PO 10 mg/kg, 0.5 hr, 10 mg/kg): 631.98 ng/mL and 529.57 ng/mL | Brain tissue concentration, individual mice (PO 10 mg/kg, 0.5 hr, 10 mg/kg): 2484.73 ng/G and 1280.85 ng/G and 1048.58 ng/G | Brain/plasma ratio, individual mice (PO 10 mg/kg, 0.5 hr, 10 mg/kg): 2.435 mL/G and 2.027 mL/G and 1.980 mL/G | Brain/plasma ratio, Mean (PO 10 mg/kg, 1 hr): 2.265 mL/G | Blood concentration, individual mice (PO 10 mg/kg, 1 hr, 10 mg/kg): 599.81 ng/mL and 532.80 ng/mL | Brain tissue concentration, individual mice (PO 10 mg/kg, 1 hr, 10 mg/kg): 1290.84 ng/G and 1149.69 ng/G | Brain/plasma ratio, individual mice (PO 10 mg/kg, 1 hr, 10 mg/kg): 2.485 mL/G and 2.152 mL/G and 2.158 mL/G | Brain/plasma ratio, Mean (PO 10 mg/kg, 2 hr): 2.329 mL/G | Blood concentration, individual mice (PO 10 mg/kg, 2 hr, 10 mg/kg): 128.34 ng/mL and 83.99 ng/mL and 219.54 ng/mL | Brain tissue concentration, individual mice (PO 10 mg/kg, 2 hr, 10 mg/kg): 277.53 ng/G and 206.08 ng/G and 520.70 ng/G | Brain/plasma ratio, individual mice (PO 10 mg/kg, 2 hr, 10 mg/kg): 2.163 mL/G and 2.454 mL/G and 2.372 mL/G | Brain/plasma ratio, Mean (PO 10 mg/kg, 4 hr): 2.052 mL/G | Blood concentration, individual mice (PO 10 mg/kg, 4 hr, 10 mg/kg): 27.74 ng/mL and 18.40 ng/mL and 10.71 ng/mL | Brain tissue concentration, individual mice (PO 10 mg/kg, 4 hr, 10 mg/kg): 65.84 ng/G and 44.67 ng/G and 14.52 ng/G | Brain/plasma ratio, individual mice (PO 10 mg/kg, 4 hr, 10 mg/kg): 2.373 mL/G and 2.428 mL/G and 1.355 mL/G

From US11130733B2, “4-OXO-alkylated tetramic acid compound, preparation method and use thereof” (BEIJING JOEKAI BIOTECH. LLC, priority 2017, dated 2021)
